Consider 21 compounds from patent publication US20090149496A1, “INHIBITORS OF THE TASK-1 AND TASK-3 ION CHANNEL” (SANOFI-AVENTIS DEUTSCHLAND GMBH, priority 2006, published 2009).

Usually pIC50 stands for −log10 of the IC50, conventionally taken in molar units. A word on the inhibition: it is the relative decrease from the control value, in per cent.

pIC50: −log10 of the molar value. “And” between values parts separate entries of the source, which are not always exact repeats. Equal values may be shown once. Where a name gives a salt, the structure may show the parent alone.

One experiment has as its system genioglossus muscle. Description: Electromyographic activity of the genioglossus muscle in narcotized rats. Type of experiment: in vivo, rat. Here is the method:
(§1) E) Investigation of the Effect on the Electromyographic Activity of the Genioglossus Muscle and the Respiratory Minute Volume in Rats
(§2) The compound of example 1 (R-enantiomer) and of example 2 was investigated for electromyographic activity of the genioglossus muscle and for respiration-stimulating effect on male urethane-chloralose-narcotized, vagotomized rats with a weight of from 250 to 300 g. For this purpose, the genioglossus EMG activity was measured by means of EMG electrodes. The respiration-stimulating effect was investigated by measuring the respiratory minute volume by means of a tracheal cannula. For the investigations, the rats were administered intravenously successively with 1, 3 and 10 mg/kg of the compound of example 1 (R-enantiomer) and of example 2, with glycofurol (50%) as the vehicle, at 15 minute intervals. CO2 was used as the positive control for the stimulation of the genioglossus activity and of the respiratory minute volume.

The test system of another experiment is respiration. Put plainly: Respiratory minute volume in narcotized rats. The class given is in vivo, rat. Here is the method: as §1, §2
A further experiment concerns the target T1, TASK1 (mouse) (Mus musculus, UniProt O35111).
T1 construct: expressed in transfected cells; host or cells: Xenopus laevis oocytes injected with in vitro synthesized RNA
Put plainly: Activity on the TASK-1 channel in Xenopus oocytes (two-microelectrode voltage clamp), mouse channel. Type of experiment: cell-based. The note with it: mouse TASK-1 expressed in Xenopus oocytes, voltage jumps to 40 mV, pH 7.4, room temperature; read-out: IC50 (μmol) TASK1 (mouse). Here is the method:
(§3) A) Determination of the Activity on the TASK-1 Channel in Xenopus Oocytes
(§4) Mouse or human TASK-1 channels were expressed in Xenopus oocytes. For this purpose, oocytes were first isolated from Xenopus levis and defolliculated. Subsequently, TASK-1-encoding RNA synthesized in vitro was injected into these oocytes. After two days of TASK-1 protein expression, TASK-1 currents were measured on the oocytes with the two-microelectrode voltage clamp technique. In this measurement, the TASK-1 channels were generally activated with voltage jumps lasting 250 ms to 40 mV. The bath was flushed with a solution of the following composition: NaCl 96 mM, KCl 2 mM, CaCl2 1.8 mM, MgCl2 1 mM, HEPES 5 mM (titrated to pH 7.4 with NaOH). These experiments were performed at room temperature. For data acquisition and analysis, the following were used: Geneclamp amplifier (Axon Instruments, Foster City, USA) and MacLab D/A converter and software (ADinstruments, Castle Hill, Australia). The inventive substances were tested by adding them to the bath solution in different concentrations. The effects of the substances were calculated as the percentage inhibition of the TASK-1 control current which was obtained when no substance was added to the solution. The data was subsequently fitted to the Hill equation in order to determine the half-maximum inhibitory concentrations (IC50 values) for the particular substances.

The target of experiment [1] is T2, TASK1 (human) (Homo sapiens, UniProt O14649). Put plainly: Activity on the TASK-1 channel with the FLIPR technique on CHO cells. Type of experiment: cell-based. Details: expressed in transfected cells; host or cells: CHO cells. The note with it: inhibition of human TASK-1 current, 10 μmol/l. The text has this: B) Determination of the Activity on the TASK-1 Channel with the FLIPR Technique
T2 sequence (O14649 whole entry): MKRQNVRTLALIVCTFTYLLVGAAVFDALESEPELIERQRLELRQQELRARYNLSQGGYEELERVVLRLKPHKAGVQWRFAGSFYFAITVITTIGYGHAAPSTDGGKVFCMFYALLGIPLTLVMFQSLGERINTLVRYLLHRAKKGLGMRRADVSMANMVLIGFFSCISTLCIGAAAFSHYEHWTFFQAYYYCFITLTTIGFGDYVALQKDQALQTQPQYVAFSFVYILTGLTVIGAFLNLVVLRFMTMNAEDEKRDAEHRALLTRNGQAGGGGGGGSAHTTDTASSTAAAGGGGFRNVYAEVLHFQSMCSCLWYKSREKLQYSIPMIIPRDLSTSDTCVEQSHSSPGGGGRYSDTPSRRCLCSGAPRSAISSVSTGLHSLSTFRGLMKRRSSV

In experiment [2] the target is T2, TASK1 (human). Description: Activity on the TASK-1 channel in Xenopus oocytes (two-microelectrode voltage clamp), human channel. Type of experiment: cell-based. The arrangement: expressed in transfected cells; host or cells: Xenopus laevis oocytes injected with in vitro synthesized RNA. The note with it: human TASK-1 expressed in Xenopus oocytes, voltage jumps to 40 mV, pH 7.4, room temperature; read-out: IC50 (μmol) TASK1 (human). Here is the method: as §3, §4

For the next experiment, the system named is TASK-1. The note with it: cited from earlier work; for pIC50: stated in the literature, read-out: IC50 value, blocker of TASK-1; for Effect on the TASK-1 channel (in words): therapeutic concentrations, literature.

T1 sequence (O35111 whole entry): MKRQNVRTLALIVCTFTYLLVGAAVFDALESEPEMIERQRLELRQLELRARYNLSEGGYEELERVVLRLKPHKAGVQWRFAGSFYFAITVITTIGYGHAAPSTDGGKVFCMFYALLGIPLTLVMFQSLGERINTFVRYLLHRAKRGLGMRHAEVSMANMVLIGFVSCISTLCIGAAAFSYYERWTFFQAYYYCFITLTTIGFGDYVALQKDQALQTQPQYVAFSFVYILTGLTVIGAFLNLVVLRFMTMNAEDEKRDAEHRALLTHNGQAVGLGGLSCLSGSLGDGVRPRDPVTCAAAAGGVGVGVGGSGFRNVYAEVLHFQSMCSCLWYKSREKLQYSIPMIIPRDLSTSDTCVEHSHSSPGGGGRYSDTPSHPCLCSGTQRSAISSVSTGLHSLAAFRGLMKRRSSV

For the compound `O=C=O` [CO2, reference compound], the “EMG activity of the genioglossus muscle (mean)” value in the experiment on genioglossus muscle (5% CO2 positive control) was 5.13 arbitrary units and 3.15 arbitrary units. Also, the “Respiratory minute volume (mean)” value with respiration (5% CO2 positive control) is 237 mL/min and 209 mL/min.
For `CCCCS(=O)(=O)Nc1ccccc1C(=O)N[C@@H](CC)c1ccc(OC)nc1` [Example 1 (S-enantiomer), 2-(butyl-1-sulfonylamino)-N-[1(S)-(6-methoxypyridin-3-yl)propyl]benzamide], on TASK1 (mouse), the negative-log IC50 (pIC50) is 6.10. At 10 µM the inhibition against TASK1 (human) [1] was 58%.
As for `COc1ccc(CC(=O)NCc2ccccc2-c2ccccc2C(=O)NCCc2cccnc2)cc1` [Example 2, N-(2-pyridin-3-ylethyl)-2′-{[2-(4-methoxyphenyl)acetylamino]-methyl}biphenyl-2-carboxamide], the pIC50 on TASK1 (mouse) is 6.37; at TASK1 (human) [2], 6.24. The figures for the “EMG activity of the genioglossus muscle (mean)” value in the experiment on genioglossus muscle (1 mg/kg intravenously), in the experiment on genioglossus muscle (3 mg/kg intravenously) and with genioglossus muscle (10 mg/kg intravenously) were 3.15 arbitrary units, 3.55 arbitrary units and 3.82 arbitrary units, respectively. In the experiment on genioglossus muscle (summary of tables 2 and 4), the “Effect on the electromyographic activity of the genioglossus muscle (in words)” value was “stimulate”. The figures for the “Respiratory minute volume (mean)” value in the experiment on respiration (1 mg/kg intravenously), in the experiment on respiration (3 mg/kg intravenously) and with respiration (10 mg/kg intravenously) were 253 mL/min, 279 mL/min and 291 mL/min, respectively. Further, the “Effect on the respiratory minute volume (in words)” value in the experiment with respiration (summary of tables 3 and 5) is “stimulate”. The compound further returned an inhibition at 10 µM at TASK1 (human) [1] of 77%.
At TASK1 (human) [1], `CC[C@H](NC(=O)c1cc(F)ccc1NS(=O)(=O)c1cccc2cccnc12)c1ccccc1` [Example 3, (S)-5-Fluoro-2-(quinoline-8-sulfonylamino)-N-(1-phenylpropyl)benzamide sodium salt] gave an inhibition at 10 µM of 82%.
Turning to `CC[C@H](NC(=O)c1cc(OC)ccc1NS(=O)(=O)c1ccc(OC)cc1)c1ccccc1` [Example 4, (S)-5-Methoxy-2-(4-methoxybenzenesulfonylamino)-N-(1-phenylpropyl)benzamide], the pIC50 on TASK1 (mouse) is 6.19.
With `C[C@H](OC(=O)NCc1ccccc1-c1ccccc1C(=O)NC[C@@H](C)O)c1ccccc1` [Example 5, N-(2-(R)-hydroxypropyl)-2′-(α-(S)-methylbenzyloxycarbonyl-aminomethyl)biphenyl-2-carboxamide], the pIC50 at TASK1 (mouse) is 5.68. On TASK1 (human) [1], this compound displayed an inhibition at 10 µM of 88%.
On the same counts, the results for `COc1ccc(CC(=O)NCc2ccccc2-c2cc(Cl)ccc2C(=O)NCc2ccc(F)cc2F)cc1` [Example 6, N-(2,4-Difluorobenzyl)-5-chloro-2′-{[2-(4-methoxyphenyl)acetyl-amino]methyl}biphenyl-2-carboxamide] are 5.94 and 68%.
In the case of `CN(CCc1ccccn1)C(=O)c1ccccc1-c1ccccc1CNC(=O)OCc1ccccc1` [Example 7, Benzyl {2′-[methyl-(2-pyridin-2-ylethyl)carbamoyl]biphenyl-2-ylmethyl}carbamate], the pIC50 at TASK1 (mouse) was 5.97. In addition, at TASK1 (human) [1], the inhibition at 10 µM came to 57%.
On the same counts, the results for `COc1ccc(CC(=O)NCc2ccccc2-c2ccsc2C(=O)NCc2ccc(F)cc2F)cc1` [Example 8, N-(2,4-Difluorobenzyl)-3-(2-{[2-(4-methoxyphenyl)acetyl-amino]methyl}phenyl)thiophene-2-carboxamide] are 6.26 and 77%.
`COc1ccc(CC(=O)NCc2ccccc2-c2ccc(C(=O)NCc3ccc(F)cc3F)o2)cc1` [Example 9, N-(2,4-Difluorobenzyl)-5-(2-{[2-(4-methoxyphenyl)acetyl-amino]methyl}phenyl)furan-2-carboxamide]: the negative logarithm of the IC50 (pIC50) at TASK1 (mouse) was 5.63. The compound also came in with an inhibition at 10 µM on TASK1 (human) [1] of 60%.
Turning to `COc1ccc(CC(=O)NCc2ccccc2-c2occc2C(=O)NCCC(C)C)cc1` [Example 10, N-(3-methylbutyl)-2-(2-{[2-(4-methoxyphenyl)acetyl-amino]methyl}phenyl)furan-3-carboxamide], at TASK1 (mouse), the pIC50 was 5.92. The same compound came in with an inhibition at 10 µM against TASK1 (human) [1] of 61%.
On the same counts, the results for `COc1ccc(CC(=O)NCc2ccccc2-c2sccc2C(=O)NCc2ccc(F)cc2F)cc1` [Example 11, N-(2,4-Difluorobenzyl)-2-(2-{[2-(4-methoxyphenyl)acetyl-amino]methyl}phenyl)thiophene-3-carboxamide] are 6.46 and 88%.
As to `C[C@H](OC(=O)NCc1ccccc1-c1cccnc1C(=O)NCCc1ccccn1)c1ccccc1` [Example 12, (S)-1-Phenylethyl {2-[2-(2-pyridin-2-ylethylcarbamoyl)pyridin-3-yl]benzyl}carbamate], the pIC50 at TASK1 (mouse) was 5.47. The compound also returned an inhibition at 10 µM on TASK1 (human) [1] of 73%.
Consider `O=C(NCc1ccccc1-c1ncccc1C(=O)NCc1ccc(F)cc1F)OCc1ccccc1` [Example 14, Benzyl {2-[3-(2,4-Difluorobenzylcarbamoyl)pyridin-2-yl]benzyl}carbamate], for which, on TASK1 (mouse), the pIC50 was 5.54. Further, at TASK1 (human) [1], the inhibition at 10 µM turned out to be 50%.
As to `CC(C)CCNC(=O)c1cccc(-c2ccncc2CNC(=O)OCc2ccccc2)c1` [Example 15, Benzyl {4-[3-(3-methylbutylcarbamoyl)phenyl]pyridin-3-yl-methyl}carbamate], the pIC50 on TASK1 (mouse) was 5.74. Besides, at TASK1 (human) [1], the inhibition at 10 µM came to 70%.
Regarding `COc1ccc(CCC(=O)NCc2ccccc2-c2cc(C(=O)NCCC(C)C)ccc2C)cc1` [Example 16, N-(3-Methylbutyl)-2′-{[3-(4-methoxyphenyl)propionylamino]methyl}-6-methylbiphenyl-3-carboxamide], the pIC50 at TASK1 (mouse) is 5.56.
Regarding `CCCCC/C=C\C/C=C\C/C=C\C/C=C\CCCC(=O)NCCO` [anandamide], the pIC50 in the experiment with TASK-1 is 6.15.
For `CCN1CC(CCN2CCOCC2)C(c2ccccc2)(c2ccccc2)C1=O` (stereo not shown) [doxapram], the pIC50 in the experiment on TASK-1 was 6.40.
`FC(F)(F)C(Cl)Br` (stereo not shown) [halothane]: the “Effect on the TASK-1 channel (in words)” value with TASK-1 is recorded as “activation”.
With `FC(F)OC(Cl)C(F)(F)F` (stereo not shown) [isoflurane], the “Effect on the TASK-1 channel (in words)” value in the experiment with TASK-1 was “activation”.
As to `CCCCC/C=C\C/C=C\C/C=C\C/C=C\CCCC(=O)N[C@H](C)CO` [methanandamide], the negative logarithm of the IC50 (pIC50) in the experiment with TASK-1 is 6.15.
